Key:
[1] = Ratio of absorbances Abs1:Abs2 as a function of product dilution, pH kept at 9.0; assay type: physicochemical; conditions: pH 9.0; for Abs1:Abs2: no detergent
Procedure: Example of color change—pH is kept constant upon dilution—As shown in Tables 1 and 2 below, bromothymol blue (BTB) is assessed in representative nil-dye versions of representative hand dishwashing products: a) Dawn® Bleach Alternative, b) Dreft®, and c) nil-dye Fairy® Liquid. In a typical procedure, BTB is directly added to the hand dishwashing detergent (60 ppm BTB) and the visible spectrum monitored (λ=400-700 nm) as a function of product dilution with deionized water. After each dilution, the detergent solution is adjusted to pH 9.0 with 0.1% NaOH and the ratio of absorbances at λmax=615-635 nm (Abs1) and λmax=395-435 nm (Abs2) measured. For comparison, a 60 ppm aqueous solution of BTB is prepared and sequentially diluted with deionized water, the pH again adjusted to 9.0 after each dilution (Table 2).
For the dishwashing detergents containing BTB, the ratio Abs1:Abs2 increases upon dilution, the most significant increase occurring at product concentrations ≦2.5%. […] Absorption measurements for Tables 1 and 2 are made on an HP UV/Visibile 8453 Spectrophotometer (Hewlett-Packard).

[2] = pKa of BTB estimated by spectrophotometric titration in water and in model dishwashing detergent; assay type: physicochemical
Text: Example of color change—pKa measurements—As outlined in the methods described by Brode (Journal of the American Chemical Society, Vol. 46, pp 581-596, 1924) and Puschett et al (Talanta, Vol. 38, Issue #3, pp 335-338, 1991), the pKa of bromothymol blue (BTB) is estimated in water and a model dishwashing detergent containing approximately 30% surfactant (combination of alkylethoxysulfonate and amine oxide). In the absence of detergent, stock solutions of BTB (6-20 ppm) are first adjusted to a pH of 11-12 and titrated with 1% HCl down to a pH of 4.0. After each pH adjustment the absorbance peak at 617 nm (Abs1) is measured and pKa estimated from the abscissa of the point of inflection. In similar fashion, BTB is added at a 60 ppm level to the dishwashing detergent, diluted 10-100 fold with deionized water and titrated with 1% HCl.

[3] = cited from earlier work; for reported pKa: @ 25° C.

Cc1c(C2(c3cc(C(C)C)c(O)c(Br)c3C)OS(=O)(=O)c3ccccc32)cc(C(C)C)c(O)c1Br [BTB, bromothymol blue]
Abs1:Abs2 ([1]; BTB in water 0.3 ppm (product conc. 0.5 %)): 5.00
Abs1:Abs2 ([1]; BTB in water 0.6 ppm (product conc. 1 %)): 4.68
Abs1:Abs2 ([1]; BTB in water 1.2 ppm (product conc. 2 %)): 4.14
Abs1:Abs2 ([1]; BTB in water 2.4 ppm (product conc. 4 %)): 4.59
Abs1:Abs2 ([1]; BTB in water 3.0 ppm (product conc. 5 %)): 4.37
Abs1:Abs2 ([1]; BTB in water 3.6 ppm (product conc. 6 %)): 4.52
Abs1:Abs2 ([1]; BTB in water 4.8 ppm (product conc. 8 %)): 4.35
Abs1:Abs2 ([1]; BTB in water 6.0 ppm (product conc. 10 %)): 4.47
Abs1:Abs2 ([1]; BTB in water 7.2 ppm (product conc. 12 %)): 4.31
Abs1:Abs2 ([1]; BTB in water 9.6 ppm (product conc. 16 %)): 4.29
Abs1:Abs2 ([1]; BTB in water 10.8 ppm (product conc. 18 %)): 4.23
Abs1:Abs2 ([1]; BTB in water 12.0 ppm (product conc. 20 %)): 4.16
change in the ratio Abs1:Abs2 upon dilution ([1]; dilution with deionized water): no significant change
pKa ([2]; model dishwashing detergent diluted with deionized water, detergent conc 1 %, model dishwashing detergent (approx. 30% surfactant)): 8.2
pKa ([2]; model dishwashing detergent diluted with deionized water, detergent conc 5 %, model dishwashing detergent (approx. 30% surfactant)): 9
pKa ([2]; model dishwashing detergent diluted with deionized water, detergent conc 10 %, model dishwashing detergent (approx. 30% surfactant)): 9.4
pKa ([2]; water without detergent, detergent conc 0 % (water, absence of detergent)): 7.3
reported pKa [3]: 7.1
pKa, literature value [3]: 7.1

Cc1c(C2(c3cc(Br)c(O)c(Br)c3C)OS(=O)(=O)c3ccccc32)cc(Br)c(O)c1Br [bromocresol green]
reported pKa [3]: 4.7

Cc1cc(C2(c3cc(C)c(O)c(Br)c3)OS(=O)(=O)c3ccccc32)cc(Br)c1O [bromocresol purple]
reported pKa [3]: 6.3

O=S1(=O)OC(c2cc(Br)c(O)c(Br)c2)(c2cc(Br)c(O)c(Br)c2)c2ccccc21 [bromophenol blue]
reported pKa [3]: 4.0

Cc1cc(C2(c3cc(C)c(O)c(Br)c3C)OS(=O)(=O)c3ccccc32)c(C)c(Br)c1O [bromoxylenol blue]
reported pKa [3]: 7.0

— patent US20090057619A1, “Compositions and Visual Perception Changing Methods” (priority 2007, published 2009)
